Holding throughout (assay): B1 Post-emergence efficacy, glasshouse pot test
Type in all cases: in vivo
Common to all, as to conditions: post-emergence spray, evaluated after 13 days

Experiment [1] has as its system Ipomoea hederacea (IPOHE). The protocol:
(§1) Seeds of a variety of test species are sown in standard soil in pots: —Solanum nigrum (SOLNI), Amaranthus retoflexus (AMARE), Setaria faberi (SETFA), Echinochloa crus-galli (ECHCG), Ipomoea hederacea (IPOHE), Lolium perenne (LOLPE). After 8 days cultivation (post-emergence) under controlled conditions in a glasshouse (at 24/16° C., day/night; 14 hours light; 65% humidity), the plants are sprayed with an aqueous spray solution derived from the formulation of the technical active ingredient in acetone/water (50:50) solution containing 0.5% Tween 20 (polyoxyethelyene sorbitan monolaurate, CAS RN 9005-64-5). Compounds are applied at 1000 g/ha and 250 g/ha. The test plants are then grown in a glasshouse under controlled conditions in a glasshouse (at 24/16° C., day/night; 14 hours light; 65% humidity) and watered twice daily. After 13 days, the test is evaluated for the percentage damage caused to the plant. The biological activities are assessed on a five point scale (5=80-100%; 4=60-79%; 3=40-59%; 2=20-39%; 1=0-19%). A blank value in the table is indicative that the compound was not tested on that species.

Experiment [2] relates to Setaria faberi (SETFA). As for the experimental part: as §1
Experiment [3] relates to Echinochloa crus-galli (ECHCG). The protocol:
as §1

For experiment [4], the system named is Lolium perenne (LOLPE). As for the experimental part: as §1
For experiment [5], the system named is Amaranthus retoflexus (AMARE). As for the experimental part:
as §1

Experiment [6] relates to Solanum nigrum (SOLNI). As for the experimental part: as §1

Turning to `C#CCN1c2ncsc2C(O)=C(c2c(Cl)ccc(Cl)c2OCc2ccccc2)S1(=O)=O` [Compound 5.22], the “percentage damage caused to the plant, five point scale, IPOHE” value (shortened to “percentage damage caused … IPOHE”) in experiment [1] (250 g/ha) and in experiment [1] (1000 g/ha) was 2 (2=20-39%) throughout. Also, the “percentage damage caused to the plant, five point scale, SETFA” value (“percentage damage caused … SETFA” for short) in experiment [2] (250 g/ha) was 1 (1=0-19%); in experiment [2] (1000 g/ha), 2 (2=20-39%). In addition, the “percentage damage caused to the plant, five point scale, ECHCG” value (“percentage damage caused … ECHCG” below) in experiment [3] (250 g/ha) and in experiment [3] (1000 g/ha) was 2 (2=20-39%) each time. The “percentage damage caused to the plant, five point scale, LOLPE” value (shortened to “percentage damage caused … LOLPE”) in experiment [4] (250 g/ha) and in experiment [4] (1000 g/ha) was 2 (2=20-39%) in each case. In addition, the “percentage damage caused to the plant, five point scale, AMARE” value (“percentage damage caused … AMARE” for short) is 2 (2=20-39%) in experiment [5] (250 g/ha) and 1 (1=0-19%) in experiment [5] (1000 g/ha). In addition, the “percentage damage caused to the plant, five point scale, SOLNI” value (“percentage damage caused … SOLNI” below) in experiment [6] (250 g/ha) and in experiment [6] (1000 g/ha) was 1 (1=0-19%) throughout.

Take `C#CCn1c(=O)c(-c2c(F)ccc(Cl)c2OCc2ccccc2)c(O)c2csnc21` [Compound 15.22]: the results for the “percentage damage caused … IPOHE” value in experiment [1] (250 g/ha) and in experiment [1] (1000 g/ha) were 4 (4=60-79%) and 3 (3=40-59%), respectively. Further, the entries for the “percentage damage caused … SETFA” value in experiment [2] (250 g/ha) and in experiment [2] (1000 g/ha) were 1 (1=0-19%) and 3 (3=40-59%), respectively. In addition, the “percentage damage caused … ECHCG” value is on record as 2 (2=20-39%) in experiment [3] (250 g/ha) and 3 (3=40-59%) in experiment [3] (1000 g/ha). For the same compound, the results for the “percentage damage caused … LOLPE” value in experiment [4] (250 g/ha) and in experiment [4] (1000 g/ha) were 3 (3=40-59%) and 4 (4=60-79%), respectively. Besides, the “percentage damage caused … AMARE” value is recorded as 4 (4=60-79%) in experiment [5] (250 g/ha) and 5 (5=80-100%) in experiment [5] (1000 g/ha). The “percentage damage caused … SOLNI” value in experiment [6] (250 g/ha) is given as 4 (4=60-79%); in experiment [6] (1000 g/ha), 5 (5=80-100%).

Turning to `C#CCn1c(=O)c(-c2c(Cl)ccc(Cl)c2OCc2cnc(Cl)s2)c(O)c2scnc21` [Compound 1.19, 6-[3,6-dichloro-2-[(2-chlorothiazol-5-yl)methoxy]phenyl]-7-hydroxy-4-prop-2-ynyl-thiazolo[4,5-b]pyridin-5-one], the “percentage damage caused … IPOHE” value in experiment [1] (250 g/ha) and in experiment [1] (1000 g/ha) was 5 (5=80-100%) throughout. Also, the “percentage damage caused … SETFA” value in experiment [2] (250 g/ha) and in experiment [2] (1000 g/ha) was 5 (5=80-100%) in each case. Besides, the “percentage damage caused … ECHCG” value in experiment [3] (250 g/ha) and in experiment [3] (1000 g/ha) was 5 (5=80-100%) each time. In addition, the “percentage damage caused … LOLPE” value in experiment [4] (250 g/ha) and in experiment [4] (1000 g/ha) was 5 (5=80-100%) each time. The “percentage damage caused … AMARE” value in experiment [5] (250 g/ha) and in experiment [5] (1000 g/ha) was 5 (5=80-100%) each time. Moreover, the “percentage damage caused … SOLNI” value in experiment [6] (250 g/ha) and in experiment [6] (1000 g/ha) was 5 (5=80-100%) each time.

`C#CCn1c(=O)c(-c2c(Cl)ccc(Cl)c2OCc2ccccc2)c(O)c2nsnc21` [Compound 9.22, 6-(2-benzyloxy-3,6-dichloro-phenyl)-7-hydroxy-4-prop-2-ynyl-[1,2,5]thiadiazolo[3,4-b]pyridin-5-one]: the “percentage damage caused … IPOHE” value in experiment [1] (250 g/ha) and in experiment [1] (1000 g/ha) was 5 (5=80-100%) throughout. Moreover, the “percentage damage caused … SETFA” value in experiment [2] (250 g/ha) is 2 (2=20-39%); in experiment [2] (1000 g/ha), 5 (5=80-100%). Further, the “percentage damage caused … ECHCG” value in experiment [3] (250 g/ha) is 2 (2=20-39%); in experiment [3] (1000 g/ha), 3 (3=40-59%). Also, the figures for the “percentage damage caused … LOLPE” value in experiment [4] (250 g/ha) and in experiment [4] (1000 g/ha) were 4 (4=60-79%) and 5 (5=80-100%), respectively. The results for the “percentage damage caused … AMARE” value in experiment [5] (250 g/ha) and in experiment [5] (1000 g/ha) were 4 (4=60-79%) and 5 (5=80-100%), respectively. In addition, the “percentage damage caused … SOLNI” value in experiment [6] (250 g/ha) was 4 (4=60-79%); in experiment [6] (1000 g/ha), 5 (5=80-100%).

`O=c1c(-c2c(Cl)ccc(Cl)c2OCc2cnc(Cl)s2)c(O)c2scnc2n1CC(F)F` [Compound 3.19]: the “percentage damage caused … IPOHE” value in experiment [1] (250 g/ha) and in experiment [1] (1000 g/ha) was 5 (5=80-100%) throughout. The “percentage damage caused … SETFA” value in experiment [2] (250 g/ha) and in experiment [2] (1000 g/ha) was 5 (5=80-100%) throughout. For the same compound, the “percentage damage caused … ECHCG” value in experiment [3] (250 g/ha) was 4 (4=60-79%); in experiment [3] (1000 g/ha) it was 5 (5=80-100%). Also, the “percentage damage caused … LOLPE” value in experiment [4] (250 g/ha) and in experiment [4] (1000 g/ha) was 5 (5=80-100%) each time. For the same compound, the “percentage damage caused … AMARE” value in experiment [5] (250 g/ha) and in experiment [5] (1000 g/ha) was 5 (5=80-100%) in each case. Also, the “percentage damage caused … SOLNI” value in experiment [6] (250 g/ha) and in experiment [6] (1000 g/ha) was 5 (5=80-100%) throughout.

For `O=S1(=O)C(c2c(Cl)ccc(Cl)c2OCc2ccccc2)=C(O)c2scnc2N1CC(F)F` [Compound 13.22], the entries for the “percentage damage caused … IPOHE” value in experiment [1] (250 g/ha) and in experiment [1] (1000 g/ha) were 4 (4=60-79%) and 5 (5=80-100%), respectively. Moreover, the “percentage damage caused … SETFA” value was 1 (1=0-19%) in experiment [2] (250 g/ha) and 2 (2=20-39%) in experiment [2] (1000 g/ha). Further, the results for the “percentage damage caused … ECHCG” value in experiment [3] (250 g/ha) and in experiment [3] (1000 g/ha) were 1 (1=0-19%) and 2 (2=20-39%), respectively. The “percentage damage caused … LOLPE” value in experiment [4] (250 g/ha) and in experiment [4] (1000 g/ha) was 2 (2=20-39%) each time. Also, the “percentage damage caused … AMARE” value was 3 (3=40-59%) in experiment [5] (250 g/ha) and 2 (2=20-39%) in experiment [5] (1000 g/ha). The “percentage damage caused … SOLNI” value is 3 (3=40-59%) in experiment [6] (250 g/ha) and 4 (4=60-79%) in experiment [6] (1000 g/ha).

The values are drawn from US10512269B2, “Herbicidal compounds” (Syngenta Participations AG, priority 2015, dated 2019).
